Data published in the supplement of paper PMC10307832.

Assays:
Experiment in all cases: relative viability (nuclei count vs DMSO), 5 days (fraction); higher = more cells survive
Axitinib + Phenformin = compound: CNC(=O)c1ccccc1Sc1ccc2c(/C=C/c3ccccn3)n[nH]c2c1 [Axitinib] + N=C(N)NC(=N)NCCc1ccccc1 [Phenformin] (partner 250 µM)
Summary of the method: (§1)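 Lung cancer cell lines, seeded in 1536-well plates, were treated the following day by pin tool with a single drug or with five library-drug doses (not always all listed) in √10 steps on top of a fixed anchor-drug dose. Cells were fixed and nuclei stained in one step after 5 days, and nuclei were counted. Relative viability is the nuclei count for treated wells divided by that for vehicle wells, reported as medians of duplicate plates.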

Bemcentinib + Vorinostat = compound: Nc1nc(Nc2ccc3c(c2)CC[C@@H](N2CCCC2)CC3)nn1-c1cc2c(nn1)-c1ccccc1CCC2 [Bemcentinib] + O=C(CCCCCCC(=O)Nc1ccccc1)NO [Vorinostat] (partner 1 µM)
Summary of the method: as §1

Axitinib + Foretinib = compound: CNC(=O)c1ccccc1Sc1ccc2c(/C=C/c3ccccn3)n[nH]c2c1 [Axitinib] + COc1cc2c(Oc3ccc(NC(=O)C4(C(=O)Nc5ccc(F)cc5)CC4)cc3F)ccnc2cc1OCCCN1CCOCC1 [Foretinib] (partner 0.25 µM)
Summary of the method: as §1

Axitinib + Alpelisib = compound: CNC(=O)c1ccccc1Sc1ccc2c(/C=C/c3ccccn3)n[nH]c2c1 [Axitinib] + Cc1nc(NC(=O)N2CCC[C@H]2C(N)=O)sc1-c1ccnc(C(C)(C)C(F)(F)F)c1 [Alpelisib] (partner 2 µM)
Summary of the method: as §1

Q: NCI-H650 was tested. Which relative viability (Axitinib + Phenformin; first compound 0.005 µM) did it give?
A: Its relative viability is 0.462.

Q: And the relative viability (Axitinib + Phenformin; first compound 0.01581 µM)?
A: The relative viability was 0.434.

Q: And the relative viability (Axitinib + Phenformin; first compound 0.05 µM)?
A: Its relative viability is 0.483.

Q: What about the relative viability (Axitinib + Phenformin; first compound 0.1581 µM) of the same cell line?
A: Its relative viability is 0.424.

Q: And the relative viability (Axitinib + Phenformin; first compound 0.5 µM)?
A: Its relative viability is 0.471.

Q: What about the relative viability (Bemcentinib + Vorinostat; first compound 0.04 µM) of the same cell line?
A: The relative viability was 0.353.

Q: And the relative viability (Bemcentinib + Vorinostat; first compound 0.1265 µM)?
A: Its relative viability is 0.442.

Q: And the relative viability (Bemcentinib + Vorinostat; first compound 0.4 µM)?
A: The relative viability was 0.378.

Q: And the relative viability (Bemcentinib + Vorinostat; first compound 1.265 µM)?
A: Its relative viability is 0.374.

Q: What about the relative viability (Bemcentinib + Vorinostat; first compound 4 µM) of the same cell line?
A: The relative viability was 0.418.

Q: What about the relative viability (Axitinib + Foretinib; first compound 0.005 µM) of the same cell line?
A: Its relative viability is 1.08.

Q: What about the relative viability (Axitinib + Foretinib; first compound 0.01581 µM) of the same cell line?
A: The relative viability was 1.12.

Q: And the relative viability (Axitinib + Foretinib; first compound 0.05 µM)?
A: Its relative viability is 0.953.

Q: What about the relative viability (Axitinib + Foretinib; first compound 0.1581 µM) of the same cell line?
A: The relative viability was 0.984.

Q: And the relative viability (Axitinib + Foretinib; first compound 0.5 µM)?
A: The relative viability was 1.07.

Q: And the relative viability (Axitinib + Alpelisib; first compound 0.005 µM)?
A: The relative viability was 1.19.

Q: What about the relative viability (Axitinib + Alpelisib; first compound 0.01581 µM) of the same cell line?
A: The relative viability was 1.13.

Q: What about the relative viability (Axitinib + Alpelisib; first compound 0.05 µM) of the same cell line?
A: The relative viability was 0.868.

Q: What about the relative viability (Axitinib + Alpelisib; first compound 0.1581 µM) of the same cell line?
A: The relative viability was 1.02.

Q: What about the relative viability (Axitinib + Alpelisib; first compound 0.5 µM) of the same cell line?
A: The relative viability was 1.24.
